Entries after “also recorded” stand apart in the source; their conditions may differ. Where two headings read alike, the source gives them in different places. Values belong to the molecule of their own block, whether it stands above or below them.
Legend:
[1] = set-up: method as in PMID 28852909; conditions: published literature; cited from earlier work
[2] = Treatment exposures, delays and dose reductions; type: in vivo, human
Excerpt: To proceed to the next cycle, lab parameters included ANC ≥ 1500/mm^3 and platelet count ≥ 100,000/mm^3, and all other toxicity considered by the investigator to be related to therapy with alisertib or gemcitabine must have resolved to grade ≤ 1 or to the subject’s baseline values. […] Thereafter, the subject was re-evaluated to determine continuation eligibility. Dose modification (Table S1B, 1C) was required for cycle initiations delayed > 1 week due to incomplete recovery from treatment-related toxicity.
Median number of cycles per subject was 3 (range 1–13), and median duration of treatment was 2.84 months (range 0.36–13.22). Similar median duration of treatment and cycles delivered were observed between the dose levels (Table S2). Proportion of planned dose received, defined as total dose received divided by total planned dose according to the dose level for alisertib and 1000 mg/m^2 for gemcitabine, was calculated according to each subject (Table S3) and each cycle (Fig. 1).

[3] = tested on: Aurora Kinase A (AKA) compared to Aurora Kinase B; set-up: method as in PMID 20382844, PMID 21556291; conditions: cited from earlier work
[4] = human, in vivo, 28 days
Method: This was an open-label phase I clinical trial with two-phase design including a dose escalation and an expansion phase in pancreatic cancer. In the dose escalation phase, a standard 3 + 3 design was used to determine the maximum tolerated dose (MTD) of alisertib in combination with gemcitabine. Alisertib was administered orally twice daily (BID) on days 1–3, 8–10, and 15–17 of a 28-day treatment cycle. Gemcitabine was given concurrently at standard dosing of 1000 mg/m^2 intravenously on days 1, 8, 15. A starting dose of alisertib 20 mg BID was used in the dose escalation phase and was escalated in cohorts of at least three evaluable subjects at 30 mg BID, 40 mg BID, and 50 mg BID until MTD or the highest feasible dose level (Table S1). The dose of 50 mg BID was the highest dose allowable and was previously reported as the recommended phase II dose (RP2D) for alisertib monotherapy. In the expansion phase, subjects received the MTD or RP2D following the same cycle schedule. Dose adjustments were allowed for both drugs (Table S1B, 1C).
The MTD was defined as the highest dose tested in which fewer than 33% of subjects experienced DLT attributable to the study drugs, when at least six subjects were treated at that dose and evaluable for toxicity.
DLT was defined as any related (possibly, probably, or definitely) grade 3 non-hematologic toxicity or any attributable grade 4 toxicity. […]

[5] = set-up: method as in PMID 22753585, PMID 24879333, PMID 25302940; conditions: twice daily for 7 days in a 21-day cycle; cited from earlier work
breast/ovarian cancer = tested on: breast/ovarian cancer; set-up: method as in PMID 30347019; conditions: cited from earlier work
[6] = tested on: multiple solid organ malignancies; set-up: method as in PMID 25728526; conditions: cited from earlier work
[7] = Plasma pharmacokinetics of alisertib, non-compartmental analysis; type: in vivo, human
Method: (§1) Pharmacokinetic sampling was performed on the expanded cohort of subjects with pancreatic cancer treated at the RP2D. Alisertib was not administered on cycle 1, day 1 to enable gemcitabine pharmacokinetic sampling on day 1 and day 2 of cycle 1 in the absence of co-administered alisertib. This served as the reference baseline for comparison to gemcitabine pharmacokinetics when co-administered with alisertib on day 8 of cycle 1. On cycle 1 day 8, alisertib was administered within 10 min of the start of the gemcitabine infusion, and the second (evening) dose of alisertib was not administered to allow for gemcitabine measurement at the 24 h timepoint. Both the parent drug (gemcitabine, dFdC) and the metabolite (dFdU) were measured to evaluate changes in gemcitabine metabolism related to alisertib administration. Pharmacokinetic blood samples were collected with dipotassium ethylenediaminetetraacetic acid (K2EDTA) as the anticoagulant before treatment, immediately after gemcitabine infusion, and at additional pre-specified post-infusion timepoints. Actual timepoints were recorded for PK parameter evaluation. Measurement of plasma gemcitabine, dFdU, and alisertib concentrations are described in the Supplementary Methods.
(§2) Gemcitabine, dFdU and alisertib PK parameters were estimated using non-compartmental analysis (NCA) with Certara Phoenix WinNonlin 8.0 (Princeton, NJ), including mean peak concentration (Cmax) and exposure (Area Under the Curve, AUC). The AUC parameters were estimated using the linear-up-log-down trapezoidal rule. Tests of significance between day 1 and day 8 PK parameters were performed using paired t-tests with GraphPad Prism 6.07 (San Diego, CA).

selected CYPs = tested on: selected CYPs; set-up: method as in PMID 31911485; conditions: in vitro; cited from earlier work
[8] = Plasma pharmacokinetics of gemcitabine and dFdU without and with alisertib, non-compartmental analysis; type: in vivo, human; conditions: for Percentage extrapolated AUC0->inf, Mean / Cmax / AUC(0-inf) / AUC(0-t): plasma, gemcitabine 1000 mg/m^2 IV; for Cmax / AUC(0-inf) / AUC(0-t): human, iv; for AUC(0-inf): read-out: AUC0->inf, Mean (converted); for AUC(0-t): read-out: AUC0->last, Mean (converted); for Effect of co-administered alisertib on NCA PK parameters (day 1 vs day 8): paired t test, P > 0.05
Method: as §1, §2

small cell lung cancer = tested on: small cell lung cancer; set-up: method as in PMID 31655296; conditions: cited from earlier work
[9] = monotherapy trial of solid tumors
[10] = 1000 mg/m2, Day 1 (without alisertib), N 5
[11] = 1000 mg/m2, Day 8 (with alisertib), N 4

SMILES: COc1cc(Nc2ncc3c(n2)-c2ccc(Cl)cc2C(c2c(F)cccc2OC)=NC3)ccc1C(=O)O [alisertib]
Tmax [1]: 3 to 4 h
Subjects who underwent dose delays/omissions ([2]; of 26 subjects): 18 subjects
Subjects with dose reductions ([2]; of 26 subjects): 9 subjects
Cycles modified ([2]; of 94 cycles delivered): 27 cycles
Selectivity for AKA compared to Aurora Kinase B [3]: > 200 fold
Recommended phase 2 dose of alisertib combined with gemcitabine [4]: 50 mg
RP2D of alisertib monotherapy [5]: 50 mg
RP2D of alisertib in combination with paclitaxel (breast/ovarian cancer; twice daily, schedule similar to the one reported here): 40 mg
Rate of SAEs [6, 9]: 43%
Treatment-related adverse events: anemia [6, 9]: 10%
Treatment-related adverse events: leukopenia [6, 9]: 21%
Treatment-related adverse events: neutropenia [6, 9]: 43%
Response rates ([6]; monotherapy, depending on the primary tumor subtype): 5–20%
Cmax ([7]; Subject 22, day 8, unexpectedly high): 1750 ng/mL
Percentage extrapolated AUC0->inf, Mean ([7]; alisertib oral at RP2D with gemcitabine, cycle 1 day 8, plasma, N 4): 25.08%
Tmax ([7]; human, plasma, oral, Subject 24, day 8, unexpectedly long, read-out: Tmax): 24 h
Tmax ([7]; human, plasma, oral, other subjects here, day 8, read-out: Tmax): 1.5 to 4.5 h
Cmax ([7]; human, plasma, oral, observed here with gemcitabine, similar to previously reported, read-out: Cmax): 700 to 900 ng/mL
Tmax ([7]; human, plasma, po, alisertib oral at RP2D with gemcitabine, cycle 1 day 8, plasma, N 5, read-out: Tmax, Mean (converted)): 7.52 h
AUC(0-inf) ([7]; human, alisertib oral at RP2D with gemcitabine, cycle 1 day 8, plasma, N 4, read-out: AUC0->inf, Mean (converted)): 16300 ng·h/mL
AUC(0-t) ([7]; human, alisertib oral at RP2D with gemcitabine, cycle 1 day 8, plasma, N 5, read-out: AUC0->last, Mean (converted)): 11800 ng·h/mL
Cmax ([7]; human, alisertib oral at RP2D with gemcitabine, cycle 1 day 8, plasma, N 5, read-out: Cmax, Mean): 973 ng/mL
Inhibition of selected CYPs (selected CYPs): not shown appreciable inhibition

Percentage extrapolated AUC0->inf, Mean ([8]; Day 1 (without alisertib), N 5): 18.13%
Percentage extrapolated AUC0->inf, Mean ([8]; Day 8 (with alisertib), N 4): 15.73%
Cmax [8, 10]: 67900 ng/mL
AUC(0-inf) [8, 10]: 412000 ng·h/mL
AUC(0-t) [8, 10]: 363000 ng·h/mL
Cmax [8, 11]: 73800 ng/mL
AUC(0-inf) [8, 11]: 363000 ng·h/mL
AUC(0-t) [8, 11]: 343000 ng·h/mL
SMILES: O=c1ccn([C@@H]2O[C@H](CO)[C@@H](O)C2(F)F)c(=O)[nH]1 [dFdU, 2′, 2′-difluorodeoxyuridine]
Effect of co-administered alisertib on NCA PK parameters (day 1 vs day 8) [8]: No significant changes; also recorded: not significantly affected

Subjects who required dose delays ([2]; of 26 subjects): 16 subjects
Subjects who required dose omission ([2]; of 26 subjects): 14 subjects
Subjects with dose reductions ([2]; of 26 subjects): 5 subjects
Cycles given at a reduced dose ([2]; of 94 cycles delivered): 10 cycles
Cycles with delayed doses ([2]; of 94 cycles delivered): 43 cycles
Cycles with dose omissions ([2]; of 94 cycles delivered): 17 cycles
Percentage extrapolated AUC0->inf, Mean ([8]; Day 1 (without alisertib), N 5): 0.14%
Percentage extrapolated AUC0->inf, Mean ([8]; Day 8 (with alisertib), N 4): 0.32%
Cmax [8, 10]: 7420 ng/mL
AUC(0-inf) [8, 10]: 3600 ng·h/mL
AUC(0-t) [8, 10]: 3600 ng·h/mL
Cmax [8, 11]: 6240 ng/mL
AUC(0-inf) [8, 11]: 3240 ng·h/mL
AUC(0-t) [8, 11]: 3230 ng·h/mL
SMILES: Nc1ccn([C@@H]2O[C@H](CO)[C@@H](O)C2(F)F)c(=O)n1 [gemcitabine]
Effect of co-administered alisertib on NCA PK parameters (day 1 vs day 8) [8]: No significant changes; also recorded: not significantly affected

SMILES: CC(=O)O[C@H]1C(=O)[C@@]2(C)[C@H]([C@H](OC(=O)c3ccccc3)[C@]3(O)C[C@H](OC(=O)[C@H](O)[C@@H](NC(=O)c4ccccc4)c4ccccc4)C(C)=C1C3(C)C)[C@]1(OC(C)=O)CO[C@@H]1C[C@@H]2O [paclitaxel]
mPFS (breast/ovarian cancer; breast/ovarian subjects): 4.7 months
Response rate (breast/ovarian cancer; breast/ovarian subjects, p = 0.38): 52%
mPFS (small cell lung cancer; 89 subjects in each arm): 2.17 months
Response rate (small cell lung cancer): 18%
